We go through 21 compounds from patent publication US12678446B2 (PFIZER INC., priority 2020, dated 2026).

Data set [1] can be described thus: cell toxicity CC50. The class given is cell-based. As to conditions: human; Hep-G2 cells; mean of at least two experiments; read-out: Cell Cytotoxicity CC50.
Data set [2] has as its system RSV (RSV A2 ECACC, 0709161v). The experiment in a line: RSV plaque reduction assay. The format is cell-based, respiratory syncytial virus. As to conditions: human respiratory syncytial virus, HepG2, read-out: RSV A2 Plaque EC50, RSV A2 in Hep-G2 cells; mean of at least two experiments unless noted (n = 1). The essentials:
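Eight-point compound dilutions were premixed with RSV A2 (100 PFU/well) and applied to confluent Hep-G2 cells for 2 h, followed by a 2-day incubation at 37° C. under compound-containing 0.8% CMC overlay. EC50 comes from immunostained plaque counts relative to untreated virus wells, averaged over ≥2 runs.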

Consider `O=C(N[C@H]1N=C(c2ccccc2)c2ccccc2NC1=O)c1c(-c2ccc(F)cc2F)nn2c1OCC(CO)C2` (stereo partly drawn) [Example 131, 2-(2,4-Difluorophenyl)-6-(hydroxymethyl)-N-[(3S)-2-oxo-5-phenyl-1,3-dihydro-1,4-benzodiazepin-3-yl]-6,7-dihydro-5H-pyrazolo[5,1-b][1,3]oxazine-3-carboxamide], for which, in data set [1], the CC50 is above 25000 nM. Besides, in data set [2], the EC50 was 93 nM.

As for `C[C@@H]1CCn2nc(Nc3ccc(F)cc3)c(C(=O)N[C@H]3N=C(c4ccccc4)c4cccc(F)c4NC3=O)c2O1` [Example 97, (5R)-2-(4-Fluoroanilino)-N-[(3S)-9-fluoro-2-oxo-5-phenyl-1,3-dihydro-1,4-benzodiazepin-3-yl]-5-methyl-6,7-dihydro-5H-pyrazolo[5,1-b][1,3]oxazine-3-carboxamide], the CC50 in data set [1] is above 25000 nM. Moreover, the EC50 in data set [2] was 439 nM.

`Cn1ncc2c(-c3nn4c(c3C(=O)N[C@H]3N=C(c5ccccc5)c5ccccc5NC3=O)OCCC4)cccc21` [Example 149, 2-(1-Methylindazol-4-yl)-N-[(3S)-2-oxo-5-phenyl-1,3-dihydro-1,4-benzodiazepin-3-yl]-6,7-dihydro-5H-pyrazolo[5,1-b][1,3]oxazine-3-carboxamide]: the CC50 in data set [1] was above 25000 nM. Moreover, in data set [2], the EC50 was 194 nM.

In the case of `C[C@@H]1CCn2nc(-c3ccc(N4CCOCC4)nc3)c(C(=O)N[C@H]3N=C(c4ccccc4)c4ccccc4NC3=O)c2O1` [Example 55, (5R)-5-Methyl-2-(6-morpholino-3-pyridyl)-N-[(3S)-2-oxo-5-phenyl-1,3-dihydro-1,4-benzodiazepin-3-yl]-6,7-dihydro-5H-pyrazolo[5,1-b][1,3]oxazine-3-carboxamide], the CC50 in data set [1] was above 25000 nM. In addition, in data set [2], the concentration for a half-maximal effect (EC50) was determined as 246 nM.

For the compound `CCN(Cc1ccccc1)CC1COc2c(C(=O)N[C@H]3N=C(c4ccccc4)c4cccc(F)c4NC3=O)c(-c3ccccc3F)nn2C1` (stereo partly drawn) [Example 174, 6-[[Benzyl(ethyl)amino]methyl]-N-[(3S)-9-fluoro-2-oxo-5-phenyl-1,3-dihydro-1,4-benzodiazepin-3-yl]-2-(2-fluorophenyl)-6,7-dihydro-5H-pyrazolo[5,1-b][1,3]oxazine-3-carboxamide], the CC50 in data set [1] was above 25000 nM. The EC50 in data set [2] was found to be 406 nM.

For `CC(C)n1cc(-c2nn3c(c2C(=O)N[C@H]2N=C(c4ccccc4)c4ccccc4NC2=O)OCCC3)cn1` [Example 103, N-[(3S)-2-oxo-5-phenyl-1,3-dihydro-1,4-benzodiazepin-3-yl]-2-(1-propan-2-ylpyrazol-4-yl)-6,7-dihydro-5H-pyrazolo[5,1-b][1,3]oxazine-3-carboxamide], the CC50 in data set [1] was above 25000 nM. Also, the EC50 in data set [2] turned out to be 132 nM.

For `CSc1ccc(-c2nn3c(c2C(=O)N[C@H]2N=C(c4ccccc4)c4cccc(F)c4NC2=O)OCCC3)c(F)c1` [Example 193, 2-(2-Fluoro-4-methylsulfanylphenyl)-N-[(3S)-9-fluoro-2-oxo-5-phenyl-1,3-dihydro-1,4-benzodiazepin-3-yl]-6,7-dihydro-5H-pyrazolo[5,1-b][1,3]oxazine-3-carboxamide], the cytotoxic concentration (CC50) in data set [1] is above 25000 nM. Besides, the half-maximal effective concentration (EC50) in data set [2] was determined as 19 nM.

For `CC(C)Nc1ccc(-c2nn3c(c2C(=O)N[C@H]2N=C(c4ccccc4)c4cccc(F)c4NC2=O)O[C@H](C)CC3)c(F)n1` [Example 30, (5R)-N-[(3S)-9-fluoro-2-oxo-5-phenyl-1,3-dihydro-1,4-benzodiazepin-3-yl]-2-[2-fluoro-6-(propan-2-ylamino)pyridin-3-yl]-5-methyl-6,7-dihydro-5H-pyrazolo[5,1-b][1,3]oxazine-3-carboxamide], the CC50 in data set [1] is above 25000 nM. The EC50 in data set [2] was determined as 16 nM.

Turning to `C[C@H]1COc2c(C(=O)N[C@H]3N=C(c4ccccc4)c4cccc(F)c4NC3=O)c(-c3ccccc3F)nn2C1` [Example 10, (6R)-N-[(3S)-9-fluoro-2-oxo-5-phenyl-1,3-dihydro-1,4-benzodiazepin-3-yl]-2-(2-fluorophenyl)-6-methyl-6,7-dihydro-5H-pyrazolo[5,1-b][1,3]oxazine-3-carboxamide], the CC50 in data set [1] is above 25000 nM. For the same compound, in data set [2], the EC50 was 23 nM.

With `C[S+]([O-])c1ccc(-c2nn3c(c2C(=O)N[C@H]2N=C(c4ccccc4)c4cccc(F)c4NC2=O)OCCC3)c(F)c1` (stereo partly drawn) [Example 194, 2-(2-Fluoro-4-methylsulfinylphenyl)-N-[(3S)-9-fluoro-2-oxo-5-phenyl-1,3-dihydro-1,4-benzodiazepin-3-yl]-6,7-dihydro-5H-pyrazolo[5,1-b][1,3]oxazine-3-carboxamide], the CC50 in data set [1] is above 25000 nM. Besides, the EC50 in data set [2] was 43 nM.

For the compound `CCN(C(=O)OC(C)(C)C)C1COc2c(C(=O)N[C@H]3N=C(c4ccccc4)c4cccc(F)c4NC3=O)c(-c3ccccc3F)nn2C1` (stereo partly drawn) [Example 108, tert-butyl N-ethyl-N-[3-[[(3S)-9-fluoro-2-oxo-5-phenyl-1,3-dihydro-1,4-benzodiazepin-3-yl]carbamoyl]-2-(2-fluorophenyl)-6,7-dihydro-5H-pyrazolo[5,1-b][1,3]oxazin-6-yl]carbamate], the CC50 in data set [1] is above 25000 nM. Also, the EC50 in data set [2] worked out at 117 nM.

Turning to `O=C(N[C@H]1N=C(c2ccccc2)c2cccc(F)c2NC1=O)c1c(-c2c(F)cccc2F)nn2c1OCC(CO)C2` (single isomer, unassigned) [Example 129-1, (6R*)-2-(2,6-Difluorophenyl)-N-[(3S)-9-fluoro-2-oxo-5-phenyl-1,3-dihydro-1,4-benzodiazepin-3-yl]-6-(hydroxymethyl)-6,7-dihydro-5H-pyrazolo[5,1-b][1,3]oxazine-3-carboxamide], in data set [1], the CC50 is above 25000 nM. In addition, the EC50 in data set [2] is 39 nM.

Turning to `CCc1ccc(-c2nn3c(c2C(=O)N[C@H]2N=C(c4ccccc4)c4ccccc4NC2=O)OCC2(CC2)C3)cn1` [Example 180, 2-(6-Ethylpyridin-3-yl)-N-[(3S)-2-oxo-5-phenyl-1,3-dihydro-1,4-benzodiazepin-3-yl]spiro[5,7-dihydropyrazolo[5,1-b][1,3]oxazine-6,1′-cyclopropane]-3-carboxamide], in data set [1], the CC50 was above 25000 nM. In addition, the EC50 in data set [2] amounted to 75 nM.

On to `O=C(N[C@H]1N=C(c2ccccc2)c2cccc(F)c2NC1=O)c1c(-c2c(F)cccc2F)nn2c1OCC(CO)C2` (mixture of isomers) [Example 129, 2-(2,6-Difluorophenyl)-N-[(3S)-9-fluoro-2-oxo-5-phenyl-1,3-dihydro-1,4-benzodiazepin-3-yl]-6-(hydroxymethyl)-6,7-dihydro-5H-pyrazolo[5,1-b][1,3]oxazine-3-carboxamide], for which, in data set [1], the CC50 was above 25000 nM. In addition, the EC50 in data set [2] stood at 37 nM.

As for `CO[C@H]1CCN(c2ccc(-c3nn4c(c3C(=O)N[C@H]3N=C(c5ccccc5)c5cccc(F)c5NC3=O)O[C@H](C)CC4)cn2)C1` [Example 146, (5R)-N-[(3S)-9-fluoro-2-oxo-5-phenyl-1,3-dihydro-1,4-benzodiazepin-3-yl]-2-[6-[(3S)-3-methoxypyrrolidin-1-yl]pyridin-3-yl]-5-methyl-6,7-dihydro-5H-pyrazolo[5,1-b][1,3]oxazine-3-carboxamide], the CC50 in data set [1] was above 25000 nM. Besides, in data set [2], the EC50 was 294 nM.

In the case of `O=C(N[C@H]1N=C(c2ccccc2)c2cccc(F)c2NC1=O)c1c(-c2ccccc2F)nn2c1SCCC2` [Example 35, N-[(3S)-9-Fluoro-2-oxo-5-phenyl-2,3-dihydro-1H-1,4-benzodiazepin-3-yl]-2-(2-fluorophenyl)-5H,6H,7H-pyrazolo[3,2-b][1,3]thiazine-3-carboxamide], the CC50 in data set [1] was above 25000 nM. The EC50 in data set [2] is 117 nM.

As to `O=C(N[C@H]1N=C(c2ccccc2)c2cccc(F)c2NC1=O)c1c(-c2ccccc2)nn2c1OCCC2` [Example 23, N-[(3S)-9-fluoro-2-oxo-5-phenyl-1,3-dihydro-1,4-benzodiazepin-3-yl]-2-phenyl-6,7-dihydro-5H-pyrazolo[5,1-b][1,3]oxazine-3-carboxamide], the CC50 in data set [1] was above 25000 nM. The concentration giving a half-maximal response (EC50) in data set [2] was 60 nM.

Consider `C[C@@H]1CCn2nc(-c3ccc(N4CCOCC4)nc3)c(C(=O)N[C@H]3N=C(c4ccccc4)c4cccc(F)c4NC3=O)c2O1` [Example 56, (5R)-N-[(3S)-9-fluoro-2-oxo-5-phenyl-1,3-dihydro-1,4-benzodiazepin-3-yl]-5-methyl-2-(6-morpholino-3-pyridyl)-6,7-dihydro-5H-pyrazolo[5,1-b][1,3]oxazine-3-carboxamide], for which, in data set [1], the CC50 is above 25000 nM. For the same compound, in data set [2], the EC50 came out at 123 nM.

`C[C@@H]1CCn2nc(-c3ccc(N4C[C@@H]5C[C@H]4CO5)nc3F)c(C(=O)N[C@H]3N=C(c4ccccc4)c4cccc(F)c4NC3=O)c2O1` (single isomer, unassigned) [Example 88]: the CC50 in data set [1] was above 25000 nM. For the same compound, in data set [2], the EC50 is 146 nM.

In the case of `CC(C)Nc1ccc(-c2nn3c(c2C(=O)N[C@H]2N=C(c4ccccc4)c4cccc(F)c4NC2=O)OCC2(CC2)C3)cn1` [Example 179, 2-[6-(Propan-2-ylamino)pyridin-3-yl]-N-[(3S)-9-fluoro-2-oxo-5-phenyl-1,3-dihydro-1,4-benzodiazepin-3-yl]spiro[5,7-dihydropyrazolo[5,1-b][1,3]oxazine-6,1′-cyclopropane]-3-carboxamide], the CC50 in data set [1] was above 25000 nM. In addition, the EC50 in data set [2] was found to be 34 nM.

As for `C[C@@H]1COc2c(C(=O)N[C@H]3N=C(c4ccccc4)c4cccc(F)c4NC3=O)c(-c3ccccc3F)nn2C1` [Example 9, (6S)-N-[(3S)-9-fluoro-2-oxo-5-phenyl-1,3-dihydro-1,4-benzodiazepin-3-yl]-2-(2-fluorophenyl)-6-methyl-6,7-dihydro-5H-pyrazolo[5,1-b][1,3]oxazine-3-carboxamide], the CC50 in data set [1] is above 18800 nM. Besides, the EC50 in data set [2] was 30 nM.

The CC50 is the concentration at which the toxic effect on the cells reaches its halfway point. As usually defined, the EC50 is the concentration needed to bring the measured effect to its halfway point.
